Assay results published in patent US11654161B2, “Compositions and methods for neuralgenesis” (priority 2016, dated 2023).

Key:
[1] = test system: BMPS; test: Resazurin reduction cytotoxicity assay of BMPS after rotenone and MPP+ treatment; format: cell-based, human; conditions: 24 h exposure
Experimental: DMSO was used as vehicle control. MPP+ working solutions were prepared in differentiation medium from 30 mM stocks to reach final concentrations of 10, 50, 100, 500, 1,000, 5,000 and 10,000 μM. Four independent experiments in 3 replicates were performed for each experimental condition (control and toxicant exposure for the different time points). […] Resazurin (7-Hydroxy-3H-phenoxazin-3-one 10-oxide) is a blue dye that is reduced into red fluorescent resorufin by redox reactions in viable cells. 100 μl Resazurin (2 mg/ml stock) were added directly to the 6 well plates (2 ml/well). Plates were incubated for 3 h at 37° C., 5% CO2. Subsequently, 50 μl of medium were transferred from each well in triplicates to a 96-well plate and fluorescence was measured at 530 nm/590 nm (excitation/emission) using a multi-well fluorometric reader CytoFluor series 4000 (PerSeptive Biosystems, Inc). Data were presented as mean±SD. Statistical analysis was performed using Dunnett's test.

[2] = test system: dopaminergic neurons; conditions: for Alterations in other neurofilament 200-positive neurons: cytotoxic concentrations: 10 μM rotenone; for General cytotoxicity and effect on other neuronal types at higher concentrations: up to 50 μM rotenone, up to 5000 μM MPP+
Experimental: Initially, cytotoxicity experiments were performed to estimate sub-cytotoxic concentrations of these two compounds affecting only dopaminergic neurons (FIGS. 4A and 4C). […] Reactive oxygen species (ROS) were measured in the cellular medium using the OxiSelect™ In Vitro ROS/RNS Assay Kit (Cellbiolabs, San Diego, Calif.) as an indication of oxidative stress. […] Real time RT-PCR was performed in order to determine effects of both chemicals on genes related to PD, mitochondrial dysfunction and oxidative stress.
BMPS aggregates were collected at 2, 4 and 8 weeks. BMPS were fixed in 4% paraformaldehyde for 1 hour, washed 3 times in PBS, then incubated for 1 hour in blocking solution consisting of 5% normal goat serum (NGS) in PBS with 0.4% TritonX (Sigma). BMPS were then incubated at 4° C. for 48 hours with a combination of primary antibodies (Table 2) diluted in PBS containing 3% NGS and 0.1% TritonX. BMPS were washed in PBS 3 times after which they were incubated with the appropriate fluorophore-tagged secondary antibody for 1 hour in PBS with 3% NGS at room temperature. Double immunostaining was visualized using the proper combination of secondary antibodies (e.g., goat anti-rabbit secondary antibody conjugated with Alexa 594 and goat anti-mouse secondary antibody conjugated with Alexa 488 (Molecular Probes). Nuclei were counterstained with DRAQ5 dye (Cell Signaling; 1:5000 in 1×PBS) or NucRed Live (Molecular Probes) for 15 minutes before mounted on slides with coverslips and Prolong Gold antifade reagent (Molecular Probes); BMPS used as negative controls for immunostaining were processed omitting the primary antibody. Images were taken using a Zeiss UV-LSM 510 confocal microscope. The experiments were performed in duplicates; at least three different fields of view were analyzed for each combination of antibodies. 3D reconstruction was done using Imaris 7.6.4 software for scientific imaging.

[3] = test system: Reactive oxygen species (ROS); test: OxiSelect In Vitro ROS/RNS Assay in cellular medium of BMPS; format: cell-based, human; conditions: 5 μM rotenone, 1000 μM MPP+
Source text: This is a fluorescence-based assay measuring the presence of total free radicals within a sample and was used according to the manufacturer's protocol. The quenched fluorogenic dye dichlorodihydrofluorescin-DiOxyQ (DCFH-DiOxyQ) which is similar to the popular 2′,7′-dichlorodihydrofluorescein diacetate (DCFH-DA) is first primed with a quench removal reagent. The resulted highly reactive non-fluorescent DCFH can react with present ROS species in the cell supernatant and is then oxidized to the highly fluorescent DCF (2′,7′-dichlorodihydroxyfluorescein). At every time point, 50 μl of the cell supernatant was added to a 96-well plate in triplicates and was mixed and incubated with the DCFH-DiOxyQ for 45 minutes. The fluorescence intensity was measured with a fluorescence microplate reader at 480 nm/530 nm (excitation/emission) and was proportional to the total ROS/RNS levels within the sample.

[4] = test system: Tyrosine hydroxylase (TH) mRNA; test: Real time RT-PCR of BMPS after toxicant exposure: TH; format: cell-based, human; conditions: for TH mRNA expression decreased by: 24 hours, 5 μM rotenone, 1000 E M MPP+; for TH gene expression compared to controls: BMPS treated with rotenone or MPP+
Experimental: (§1) Total RNA was extracted from aggregates every week up to 8 weeks of differentiation using Tripure (Roche, Switzerland) according to Chomczynski and Sacchi (1987). The same RNA extraction method was used to isolate RNA after toxicant treatment. RNA quantity and purity was determined using NanoDrop 2000c (Thermo Scientific). One microgram of RNA was reverse-transcribed using the M-MI V Promega Reverse Transcriptase (Promega) according to the manufacturer's recommendations. For miRNA reverse-transcription 60 ng of RNA were reverse transcribed using TaqMan microRNA Reverse transcription kit in combination with miRNA specific stem-loop primers, which are a part of TaqMAn microRNA expression assay. Upto eight stem-loop primers were multiplexed in one reaction.
(§2) The expression of genes was evaluated using specific Taqman® gene expression assays (Life Technologies). miRNA expression was analyzed using TaqMAn microRNA expression assay in combination with TaqMan miRNA Reverse Transcription kit using protocol described in [77]. […] Real time RT-PCRs were performed using a 7500 Fast Real Time system machine (Applied Biosystems). Fold changes were calculated using the 2(−ΔΔCt) method. β-actin and 18s were used as a housekeeping genes for mRNA and RNU44 for miRNA. There were no statistically significant differences in expression for β-actin, 18s, and RNU44. Data were presented as mean±SD, normalized to housekeeping genes and week 0.

[5] = test system: T-box brain 1 (TBR1); test: Real time RT-PCR of BMPS after toxicant exposure: TBR1; format: cell-based, human; conditions: for reduction of TBR1 gene expression: 24 hours exposure, sub-cytotoxic concentrations; for TBR1 gene expression: non-cytotoxic concentrations
Experimental: as §1, §2

[6] = test system: Alpha-synuclein (SNCA); test: Real time RT-PCR of BMPS after toxicant exposure: SNCA; format: cell-based, human; conditions: for reduction of SNCA gene expression: 24 hours exposure, sub-cytotoxic concentrations
Experimental: as §1, §2

[7] = test system: NDUFB1, ATP5C1, ATP50; test: Real time RT-PCR of BMPS after toxicant exposure: mitochondrial function genes; format: cell-based, human; conditions: for Expression of genes related to mitochondrial function (NDUFB1, ATP5C1, ATP50): 24 hours exposure, 5 μM rotenone, 1000 μM MPP+; for Mitochondrial function genes (NDUFB1, ATP5C1, ATP50), MPP+ versus rotenone: BMPS treated with MPP+ or rotenone
Experimental: as §1, §2

[8] = test system: Caspase-1 (CASP1); test: Real time RT-PCR of BMPS after toxicant exposure: Caspase-1; format: cell-based, human
Experimental: as §1
as §2, with “Data were presented as mean±SD, normalized to housekeeping genes and week 0.” left out

[9] = test system: KEAP1; test: Real time RT-PCR of BMPS after toxicant exposure: KEAP1; format: cell-based, human; conditions: 24 h exposure to 1 mM MPP+
Source text: In one embodiment, the model described herein is useful for studying Parkinson's disease (PD). Traditionally, PD has been described as a pre-synaptic degenerative process that affects dopaminergic neurons and induces a fundamental motor disorder, however, non-motor symptoms can also be present. Research in Parkinson's disease is experiencing an upswing at the moment, owing to a lack of curative drugs for the large number of patients. […] These model toxins are mainly used in mice and primates (and less in cell cultures) to model a disease state resembling PD. Human neurons, which would be most relevant, are not usually available and existing cell lines are only very poor substitutes. […]
(§3) Total RNA was extracted from aggregates every week up to 8 weeks of differentiation using Tripure (Roche, Switzerland) according to Chomczynski and Sacchi (1987). […] RNA quantity and purity was determined using NanoDrop 2000c (Thermo Scientific). […]
(§4) The expression of genes was evaluated using specific Taqman® gene expression assays (Life Technologies). miRNA expression was analyzed using TaqMAn microRNA expression assay in combination with TaqMan miRNA Reverse Transcription kit using protocol described in [77]. […] Fold changes were calculated using the 2(−ΔΔCt) method. β-actin and 18s were used as a housekeeping genes for mRNA and RNU44 for miRNA. […]

[10] = test system: PD-related genes (TH, TBR1, SNCA, KEAP1, NDUFB1, ATP5C1, ATP50 and CASP1); test: Real time RT-PCR of BMPS after toxicant exposure: PD-related gene panel; format: cell-based, human; conditions: 5 μM rotenone, 1 mM MPP+
Source text: Induced pluripotent stem cells (iPSC)-derived human-relevant microphysiological systems (MPS) better mimic the organ level, but are too complex for chemical and drug screening. As described herein, a reproducible 3D brain MPS (BMPS) that differentiates into mature neurons and glial cells (astrocytes and oligodendrocytes), which reproduces the topology of neuronal-glial interactions and connectivity in the central nervous system was developed. […]
as §3, §4

[11] = test system: Down's syndrome model; test: Down's syndrome BMPS exposed to compounds that induce oxidative stress, compared to healthy donor model; conditions: Down's syndrome iPSC-derived model
Source text: FIG. 5A depicts morphological characterization with immunostaining of neurons (MAP2, Syn1, TH, SYP), neural precursor cells (nestin) and glial cells (GFAP) at 8 weeks of differentiation.

SMILES	cytotoxic concentrations [1]	Alterations in other neurofilament 200-positive neurons ([2]; 1000 μM MPP+)	General cytotoxicity and effect on other neuronal types at higher concentrations [2]	ROS production ([3]; 12 hours exposure)	ROS production ([3]; 24 hours exposure)	TH mRNA expression decreased by [4]	TH gene expression compared to controls [4]	reduction of TBR1 gene expression [5]	TBR1 gene expression [5]	reduction of SNCA gene expression [6]	Expression of genes related to mitochondrial function (NDUFB1, ATP5C1, ATP50) [7]	Mitochondrial function genes (NDUFB1, ATP5C1, ATP50), MPP+ versus rotenone [7]	Expression of PD-related genes [10]	also measured
C[n+]1ccc(-c2ccccc2)cc1 [MPP+, 1-methyl-4-phenylpyridinium]	1000 µM	did not show any alterations in other neurofilament 200-positive neurons	led to general cytotoxicity and affected also other neuronal types stained positive for neurofilament 200	no statistically significant changes	increase in ROS production	70%±9	decreased TH gene expression compared to controls	76±22%	down-regulated	41±40%	tended to decrease in expression but these changes were not statistically significant	down-regulated, more strongly	altered expression of PD-related genes	Disruption of dopaminergic neurons observed by immunohistochemistry ([2]; 5 μM rotenone, 100 μM MPP+): disrupted dopaminergic neurons; Dopaminergic effects at concentrations selected for further studies ([2]; 5 μM rotenone, 1000 μM MPP+): induced clear and selective dopaminergic effects; Selective disruption of dopaminergic neurons but not of any other cell types (immunohistochemistry) ([2]; 24 h, 1p M rotenone, 100 μM MPP+, BMPS differentiated 4 weeks): Selective disruption of dopaminergic neurons but not of any other cell types; Degeneration of dopaminergic neurons ([2]; treatment of BMPS (FIGS. 4E and 4F)): induced specific degeneration of dopaminergic neurons; Statistical significance of change in SNCA expression ([6]; BMPS exposed to 1 mM MPP+): no statistically significant changes in SNCA expression; Caspase-1 (CASP1) expression ([8]; 24 h exposure to 1 NM MPP+): increased significantly; Caspase-1 gene expression ([8]; 24 hours exposure to MPP+): increased; KEAP1 expression (oxidative stress marker) [9]: increase in KEAP1 expression
C[n+]1ccc(-c2cc[n+](C)cc2)cc1 [paraquat]														Response of Down's syndrome model compared to model from healthy donors [11]: more sensitive to these compounds than the healthy model
C=C(C)[C@H]1Cc2c(ccc3c2O[C@@H]2COc4cc(OC)c(OC)cc4[C@@H]2C3=O)O1 [rotenone]	10 µM	did not show any alterations in other neurofilament 200-positive neurons	led to general cytotoxicity and affected also other neuronal types stained positive for neurofilament 200	no statistically significant changes	increase in ROS production	84%±11	decreased TH gene expression compared to controls	70±13%	down-regulated	72±6%	tended to decrease in expression but these changes were not statistically significant	down-regulated	altered expression of PD-related genes	SNCA gene expression ([6]; 5 μM rotenone, 1 mM MPP+): Reduction of SNCA
